For test [1], the target named is T1, Alpha-1A adrenergic receptor (Homo sapiens, UniProt P35348).
T1 sequence (P35348 whole entry): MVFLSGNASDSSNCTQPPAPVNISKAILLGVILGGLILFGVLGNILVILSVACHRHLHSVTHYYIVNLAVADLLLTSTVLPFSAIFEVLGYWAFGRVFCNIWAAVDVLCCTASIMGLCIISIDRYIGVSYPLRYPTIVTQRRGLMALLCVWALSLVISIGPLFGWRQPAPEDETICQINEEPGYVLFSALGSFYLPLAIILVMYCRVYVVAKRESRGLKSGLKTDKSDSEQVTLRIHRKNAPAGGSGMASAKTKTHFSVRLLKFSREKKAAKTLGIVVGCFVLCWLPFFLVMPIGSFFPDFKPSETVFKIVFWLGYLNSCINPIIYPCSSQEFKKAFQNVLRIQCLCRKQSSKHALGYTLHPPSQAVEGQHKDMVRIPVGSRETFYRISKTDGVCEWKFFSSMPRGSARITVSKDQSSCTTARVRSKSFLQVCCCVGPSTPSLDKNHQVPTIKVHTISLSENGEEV

For test [2], the target named is T2, D(1A) dopamine receptor (Homo sapiens, UniProt P21728).
The target of test [3] is T2, D(1A) dopamine receptor. The source holds these as a separate data set.
For another test, the target named is T3, Adenosine receptor A3 (Homo sapiens, UniProt P0DMS8).
T3 sequence (P0DMS8 whole entry): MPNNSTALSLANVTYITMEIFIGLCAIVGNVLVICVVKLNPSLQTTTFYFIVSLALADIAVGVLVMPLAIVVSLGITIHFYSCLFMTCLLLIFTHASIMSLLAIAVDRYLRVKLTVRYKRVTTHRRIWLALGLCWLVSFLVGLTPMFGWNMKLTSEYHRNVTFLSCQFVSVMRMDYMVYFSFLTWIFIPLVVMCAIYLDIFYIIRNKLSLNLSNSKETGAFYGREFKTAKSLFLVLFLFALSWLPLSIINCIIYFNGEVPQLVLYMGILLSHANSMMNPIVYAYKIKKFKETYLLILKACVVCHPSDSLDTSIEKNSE

The next test concerns the target T4, Estrogen receptor (Homo sapiens, UniProt P03372).
T4 sequence (P03372 whole entry): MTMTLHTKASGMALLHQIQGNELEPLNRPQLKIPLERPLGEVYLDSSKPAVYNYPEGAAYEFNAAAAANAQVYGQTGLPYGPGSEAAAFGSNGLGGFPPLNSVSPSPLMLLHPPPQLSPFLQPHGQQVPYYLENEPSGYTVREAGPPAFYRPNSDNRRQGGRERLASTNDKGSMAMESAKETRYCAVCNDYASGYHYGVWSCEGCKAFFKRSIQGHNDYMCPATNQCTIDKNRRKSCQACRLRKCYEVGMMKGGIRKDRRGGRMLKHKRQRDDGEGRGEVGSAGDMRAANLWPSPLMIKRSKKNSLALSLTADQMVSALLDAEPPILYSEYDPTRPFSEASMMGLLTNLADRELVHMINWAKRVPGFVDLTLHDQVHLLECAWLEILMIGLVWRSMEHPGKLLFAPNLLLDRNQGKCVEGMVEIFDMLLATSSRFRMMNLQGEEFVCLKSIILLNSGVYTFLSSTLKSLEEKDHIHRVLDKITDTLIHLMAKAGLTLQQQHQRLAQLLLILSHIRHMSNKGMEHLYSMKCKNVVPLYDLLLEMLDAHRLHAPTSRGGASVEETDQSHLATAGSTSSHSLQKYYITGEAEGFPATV
Format: functional.

Test [4] addresses T5, Retinoic acid receptor gamma (Homo sapiens, UniProt P13631).
T5 sequence (P13631 whole entry): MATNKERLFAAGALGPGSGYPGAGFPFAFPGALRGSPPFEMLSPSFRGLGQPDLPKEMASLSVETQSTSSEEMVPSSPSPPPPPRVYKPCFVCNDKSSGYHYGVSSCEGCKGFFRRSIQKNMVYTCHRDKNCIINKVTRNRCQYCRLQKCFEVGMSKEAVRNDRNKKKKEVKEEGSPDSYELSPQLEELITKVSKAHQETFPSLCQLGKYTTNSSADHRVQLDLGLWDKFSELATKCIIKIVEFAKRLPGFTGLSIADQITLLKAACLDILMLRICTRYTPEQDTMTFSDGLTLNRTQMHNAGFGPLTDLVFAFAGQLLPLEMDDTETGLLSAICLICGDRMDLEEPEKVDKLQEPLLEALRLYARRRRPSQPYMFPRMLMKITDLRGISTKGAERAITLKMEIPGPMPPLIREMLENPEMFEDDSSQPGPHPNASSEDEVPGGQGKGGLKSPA
Format: functional, cell-based.

Test [5] concerns the target T6, Retinoic acid receptor alpha (Homo sapiens, UniProt P10276).
T6 sequence (P10276 whole entry): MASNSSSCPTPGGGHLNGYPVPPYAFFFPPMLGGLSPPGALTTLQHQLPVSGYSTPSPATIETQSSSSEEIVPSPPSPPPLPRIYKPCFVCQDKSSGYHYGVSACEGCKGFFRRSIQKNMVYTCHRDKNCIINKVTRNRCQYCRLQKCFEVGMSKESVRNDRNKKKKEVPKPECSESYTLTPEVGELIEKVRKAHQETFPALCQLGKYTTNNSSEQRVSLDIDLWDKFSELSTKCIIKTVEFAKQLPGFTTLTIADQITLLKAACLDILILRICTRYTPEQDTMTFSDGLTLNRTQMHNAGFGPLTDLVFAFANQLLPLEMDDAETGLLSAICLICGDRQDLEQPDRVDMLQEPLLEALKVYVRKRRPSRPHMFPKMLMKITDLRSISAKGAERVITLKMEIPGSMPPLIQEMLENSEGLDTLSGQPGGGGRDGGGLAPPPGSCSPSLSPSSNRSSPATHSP
Format: functional, cell-based.

Test [6] has as its target T7, Retinoic acid receptor beta (Homo sapiens, UniProt P10826).
T7 sequence (P10826 whole entry): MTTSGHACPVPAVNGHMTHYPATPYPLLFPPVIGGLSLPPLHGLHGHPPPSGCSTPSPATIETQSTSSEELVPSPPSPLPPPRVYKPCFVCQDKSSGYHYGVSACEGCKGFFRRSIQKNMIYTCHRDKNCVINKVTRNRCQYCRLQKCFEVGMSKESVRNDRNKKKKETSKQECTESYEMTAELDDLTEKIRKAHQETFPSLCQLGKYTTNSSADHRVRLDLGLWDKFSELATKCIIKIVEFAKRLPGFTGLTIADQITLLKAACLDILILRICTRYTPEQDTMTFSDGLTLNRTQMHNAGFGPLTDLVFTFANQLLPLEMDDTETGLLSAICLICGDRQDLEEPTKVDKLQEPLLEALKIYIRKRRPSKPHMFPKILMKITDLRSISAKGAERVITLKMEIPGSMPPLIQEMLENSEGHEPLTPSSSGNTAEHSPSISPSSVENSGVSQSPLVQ
Format: functional, cell-based.
Further: assay procedure not described here.

T2 sequence (P21728 whole entry): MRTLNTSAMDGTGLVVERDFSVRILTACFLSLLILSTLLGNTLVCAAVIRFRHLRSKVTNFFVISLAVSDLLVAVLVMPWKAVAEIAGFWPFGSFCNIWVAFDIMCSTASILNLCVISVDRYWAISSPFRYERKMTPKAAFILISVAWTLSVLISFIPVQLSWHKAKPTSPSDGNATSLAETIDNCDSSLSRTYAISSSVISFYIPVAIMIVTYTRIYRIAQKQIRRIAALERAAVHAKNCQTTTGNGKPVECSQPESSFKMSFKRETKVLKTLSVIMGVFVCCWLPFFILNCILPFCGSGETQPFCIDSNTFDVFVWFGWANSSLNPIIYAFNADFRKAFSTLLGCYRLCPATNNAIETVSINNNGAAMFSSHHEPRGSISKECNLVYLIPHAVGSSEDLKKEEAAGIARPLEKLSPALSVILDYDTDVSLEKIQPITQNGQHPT

One may read the AC50 as the concentration at which the activity in the assay is half-maximal. Take BIVALIRUDIN: the AC50 (in test [1]; on D(1A) dopamine receptor [2]) was more than 30 µM each time.
As for `CCN1CCC[C@H]1CNC(=O)c1cc(S(N)(=O)=O)ccc1OC` [LEVOSULPIRIDE], at D(1A) dopamine receptor [3], half-maximal activity (AC50) was put at 12 µM.
`Nc1nc2ccc(OC(F)(F)F)cc2s1` [RILUZOLE] gave a half-maximal activity concentration (AC50) at Adenosine receptor A3 of 29.2 µM.
For `[H]/N=C(/N)c1ccc(NCc2nc3cc(C(=O)N(CCC(=O)O)c4ccccn4)ccc3n2C)cc1` [DABIGATRAN], at Estrogen receptor, the AC50 is more than 30 µM.
As to `CC(C)c1c(C(=O)Nc2ccccc2)c(-c2ccccc2)c(-c2ccc(F)cc2)n1CC[C@@H](O)C[C@@H](O)CC(=O)O` [ATORVASTATIN], the AC50 in test [4], in test [5] and in test [6] was more than 30 µM each time.

These data come from ChEMBL document CHEMBL5291721, “A preclinical secondary pharmacology resource illuminates target-adverse drug reaction associations of marketed drugs” (Nat Commun, 2023).
